The results in this text go back to PMC10485820 (European Journal of Pharmaceutical Sciences, 2023).

Series [1] is described as follows: Particle size distribution of the API (laser diffraction). Format: physicochemical. To be noted: dry method. As for the experimental part:
The determination was performed in a dry method with a Scirocco dry powder feeder, and the air was used as the dispersion agent ([Tari et al., 2015]). Meanwhile, the analysis results, d (0.1), d (0.5) and d (0.9) (defined as the diameter where 10%, 50% and 90% of population lies below this value), were directly output.

Series [2] is described as follows: Apparent permeability in Caco-2 monolayer cell lines. Format: in vitro ADME. The note with it: human, Caco-2. On the procedure:
(§1) All experiments were performed in triplicate and analyzed by high-performance liquid chromatography with tandem mass spectrometry (HPLC-MS/MS). The apparent permeability coefficient (Papp) of each compound under the corresponding concentration was calculated according to Eq. (1) and listed as follows:(1) Papp=dQ/dt×1/A×C0 Where Papp was the apparent permeability coefficient (cm/s × 10^−6), dQ/dt (pmol/second) was the rate at which the compound appears in the receiver side, C0 (nM) was the initial concentration of the compound in the donor side, and A (cm^2) represented the surface area of the cell monolayer.

The next series deals with Caco-2 monolayer cells. The description is as above. The class given is in vitro ADME. To be noted: from Papp A→B at 1, 5, 20 μM. As for the experimental part: as §1
Series [3] in a line: Dissolution profile of HSK7653 tablets at pH 4.5 acetum. The class given is physicochemical. The text has this: (§2) The development of the DLM was complex.
Series [4] in a line: HSK7653 PBPK model development and fitting (SimCYP). Also on record: species or system human. To be noted: Fitted (based on in vivo data).
Excerpt: as §2
In this manuscript, we constructed the ADAM absorption model using the dissolution profile method and DLM method, respectively. The same disposition model was severally coupled with these two different absorption models to capture the absorption and disposition characteristics of HSK7653 in vivo. Here, we collected the CLint_hep and CLR from in vitro experimental results and in vivo clinical trial data without further optimization. […] Therefore, the disposition model of HSK7653 could accurately capture the elimination characteristics of HSK7653 in vivo. […] Furthermore, the models were also validated with PK data from a multiple dose clinical study (CTR20191549). […] Accordingly, the mechanism driven HSK7653 PBPK model can be used to simulate untested scenarios in specific populations.

The nature of series [5]: Renal clearance from in vivo clinical study. The note with it: human, oral; Measured (in vivo); read-out: CLR (renal clearance) (converted).
Excerpt: as §2

The next series has as its target T1, OAT3 (Homo sapiens, UniProt Q8TCC7).
T1 sequence (Q8TCC7 1-542): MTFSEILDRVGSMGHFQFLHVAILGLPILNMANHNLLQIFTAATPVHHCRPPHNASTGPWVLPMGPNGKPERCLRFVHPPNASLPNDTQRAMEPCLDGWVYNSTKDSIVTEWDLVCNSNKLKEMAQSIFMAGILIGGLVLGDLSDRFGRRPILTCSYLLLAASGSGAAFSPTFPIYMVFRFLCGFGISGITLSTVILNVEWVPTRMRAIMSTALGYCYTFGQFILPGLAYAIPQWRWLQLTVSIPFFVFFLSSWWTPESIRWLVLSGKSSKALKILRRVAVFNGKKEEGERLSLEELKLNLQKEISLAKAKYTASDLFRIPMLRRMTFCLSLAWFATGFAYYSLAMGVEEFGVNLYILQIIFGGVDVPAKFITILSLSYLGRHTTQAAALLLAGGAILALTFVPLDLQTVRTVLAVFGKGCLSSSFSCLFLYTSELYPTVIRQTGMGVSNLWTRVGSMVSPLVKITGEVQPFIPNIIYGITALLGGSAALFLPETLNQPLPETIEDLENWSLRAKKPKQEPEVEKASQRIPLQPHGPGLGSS
In words: Preclinical transporter substrate assessment (unpublished). The class given is in vitro ADME.

The next series concerns the target T2, OCT3 (Homo sapiens, UniProt O75751).
T2 sequence (O75751 1-556): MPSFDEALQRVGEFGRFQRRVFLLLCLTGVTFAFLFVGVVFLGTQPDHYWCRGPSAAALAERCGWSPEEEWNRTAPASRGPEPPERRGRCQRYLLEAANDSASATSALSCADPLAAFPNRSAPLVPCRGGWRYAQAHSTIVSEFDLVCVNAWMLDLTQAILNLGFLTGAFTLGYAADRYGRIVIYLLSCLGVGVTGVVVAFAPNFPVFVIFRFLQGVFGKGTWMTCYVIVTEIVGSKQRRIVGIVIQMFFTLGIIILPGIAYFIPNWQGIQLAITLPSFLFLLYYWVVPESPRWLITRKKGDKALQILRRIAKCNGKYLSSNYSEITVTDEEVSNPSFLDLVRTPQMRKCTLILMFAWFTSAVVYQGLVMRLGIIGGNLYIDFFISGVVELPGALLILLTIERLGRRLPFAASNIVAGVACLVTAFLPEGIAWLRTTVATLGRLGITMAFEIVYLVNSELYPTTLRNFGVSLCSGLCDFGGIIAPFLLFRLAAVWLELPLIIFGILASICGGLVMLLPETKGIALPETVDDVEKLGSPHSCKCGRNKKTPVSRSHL
The series is described as above. Format: in vitro ADME.

For the next series, the target named is T3, MATE1 (Homo sapiens, UniProt Q96FL8).
T3 sequence (Q96FL8 1-570): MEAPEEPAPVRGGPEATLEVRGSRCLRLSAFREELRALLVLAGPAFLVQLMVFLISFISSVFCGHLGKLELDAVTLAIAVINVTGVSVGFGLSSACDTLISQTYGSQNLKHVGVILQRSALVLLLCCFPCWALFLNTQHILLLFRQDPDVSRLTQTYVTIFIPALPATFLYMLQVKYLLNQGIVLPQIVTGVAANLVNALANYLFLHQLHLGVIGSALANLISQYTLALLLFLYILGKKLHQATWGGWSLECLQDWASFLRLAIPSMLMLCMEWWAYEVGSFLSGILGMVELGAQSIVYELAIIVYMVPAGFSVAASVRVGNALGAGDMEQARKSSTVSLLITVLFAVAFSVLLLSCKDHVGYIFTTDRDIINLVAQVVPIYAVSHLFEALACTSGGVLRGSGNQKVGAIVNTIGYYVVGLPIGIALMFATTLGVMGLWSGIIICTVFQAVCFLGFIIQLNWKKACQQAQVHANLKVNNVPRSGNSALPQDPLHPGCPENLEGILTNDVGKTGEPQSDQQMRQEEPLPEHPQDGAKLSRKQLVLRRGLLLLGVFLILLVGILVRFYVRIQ
The description is as above. The class given is in vitro ADME.

A short description of series [6]: Multidose clinical study of biweekly HSK7653 IR tablets in T2DM patients (CTR20182505): pharmacokinetics. To be noted: biweekly administration of IR tablets. Format: in vivo, human.

As to `CS(=O)(=O)n1cc2c(n1)CN([C@@H]1C[C@H](N)[C@@H](c3cc(F)ccc3F)O[C@@H]1C(F)(F)F)C2` [HSK7653], in [1], the “d (0.1)” value came out at 1.313 μm. Moreover, the “d (0.5)” value in [1] is given as 3.288 μm. Also, the “d (0.9)” value in series [1] was found to be 8.163 μm. Also, the Papp A→B at 2 h, 1 μM in [2] (1 μM, 2 h, 37 °C) worked out at 25.3 ×10⁻⁶ cm/s. Moreover, the Papp A→B at 2 h, 5 μM in series [2] (5 μM, 2 h, 37 °C) came out at 29.3 ×10⁻⁶ cm/s. For the same molecule, the Papp A→B at 2 h, 20 μM in series [2] (20 μM, 2 h, 37 °C) was 40.3 ×10⁻⁶ cm/s. Moreover, the Papp at 2 h in series [2] (average value of Papp at different incubation concentrations, apical pH: basolateral pH 7.4: 7.4, read-out: Caco-2 permeability, model input) stood at 31.6 ×10⁻⁶ cm/s. In addition, the Permeability classification result in the series with Caco-2 monolayer cells is on record as “high-permeability compound”. Also, the figures for the “Fasted Dissolution (%)” value in series [3] (time 0.167 h), in series [3] (time 0.333 h) and in [3] (time 0.50 h) were 70.52%, 95.97% and 100.0%, respectively. For the same molecule, the “Biliary CLint (CLint_bile)” value in series [4] came to 0.025 μL/min/10^6. Also, in [5], the CL renal was 6.22 mL/min. The Transporter substrate assessment result at OAT3, on OCT3 and on MATE1 was “not a common transport substrate” in each case. Besides, the Accumulation entry in series [6] is reported as “no accumulation”.
